# Measurements as given in patent publication US10188858B2, “Method and device for treating a tissue with a high frequency electromagnetic field” (University of Cincinnati, priority 2013, dated 2019).
# Tests used:
# [1] = test system: MEK; assay: Total and phosphorylated MEK levels (sandwich ELISA) with inhibitors; type: cell-based, C57 mice
# Description: (§1) Murine microvascular endothelial cells were isolated from the lungs of C57 mice (Jackson Laboratory, Maine, USA) as described previously. Cells were doubly sorted using PECAM-1- and ICAM-2-conjugated magnetic beads (Invitrogen Corporation, CA, USA) and cultured in medium M199 (HyClone, UT, USA) supplemented with 10% fetal bovine serum (FBS; Atlanta Biologicals, GA, USA), 1% antibiotic/antimycotic (AB/AM; Atlanta Biologicals, USA), 1% heparin (Sigma-Aldrich, MO, USA) and 1Ong/mL endothelial growth factor supplement (Sigma-Aldrich, MO, USA). Cells from passages 4-9 were used. All experiments were conducted in the culture medium (medium M199, 10% FBS, 1% antibiotic/antimycotic and 1% heparin) without additional growth factor supplementation.
# (§2) Capillary morphogenesis, and MAPK pathways activation were quantified following 12 hours of EF exposure, and the analyses of VEGF expression, cell proliferation and apoptosis were conducted up to 24 hours of EF exposure. The experimental groups included endothelial cells exposed to high frequency EF, low frequency EF and a group not exposed to EF.
# (§3) After EF exposure, cells were lysed using buffer containing 20 mM Tris-HCl, 150 mM NaCl, 1 mM Na2EDTA, 1 mM EGTA, 1% Triton, 2.5 mM sodium pyrophosphate, 1 mM beta-glycerophosphate, 1 mM Na3VO4, 1 μg/ml leupeptin and 1 mM phenylmethylsulfonyl fluoride (PMSF). The total protein concentration in each sample lysate was determined using CoomassiePlus Assay Kit (Thermo Fisher Scientific, IL, USA). 10 μg of total protein was used for all MAPK pathway ELISAs. The total and phosphorylated levels of ERK, MEK, p38 and JNK proteins were quantified using appropriate sandwich ELISA kits (Cell Signaling Technology, MA, USA). MEK-cRaf complex levels and free (unbound) MEK levels were quantified according to previously described protocols with modifications. The total MEK levels are presented in optical densities and phosphorylated MEK, MEK-cRaf and pMEK-cRaf levels are normalized to total MEK levels. For negative control, β-actin (Invitrogen, USA) was immunoprecipitated from the lysate and subjected to ELISAs. All ELISA assays were performed in duplicates or triplicates, with all experiments repeated at least N=6 times.
# To determine the role of VEGF signaling in EF-mediated angiogenic responses, experiments were repeated in the presence of 0.1 μg/mL soluble anti-mouse VEGF blocking antibody (R&D Systems, MN, USA), or 5 μM SU5416 (Sigma-Aldrich, MO, USA), a specific pharmacological VEGFR2inhibitor, or in the presence of 10 μM U0126 MEK inhibitor (Sigma-Aldrich, MO, USA). […] To examine the role of PI3K, Ca^2+ and eNOS signaling in EF-mediated MEK activation, cells were treated with 10 μM LY294002 (PI3K inhibitor), 10 μM BAPTA (Ca^2+ chelator), or 200 μM Nω-Nitro-L-arginine methyl ester hydrochloride (L-NAME, eNOS inhibitor),respectively, and the total and phosphorylated MEK levels were measured using ELISA. All inhibitors were added to the culture supernatant and pre-incubated for one hour to equilibrate respective target blocking prior to EF exposure. All analyses were done in duplicates/triplicates, and all inhibitor experiments were repeated at least N=3 times.
# [2] = test system: Murine microvascular endothelial cells; assay: In vitro capillary morphogenesis (nanofiber-based angiogenesis assay) with inhibitors; type: cell-based, C57 mice
# Experimental: Cells from passages 4-9 were used. […] Capillary morphogenesis was assessed using nanofiber-based angiogenesis assay previously developed in the lab, in which endothelial cells seeded on RAD16-II peptide nanofiber hydrogel (SynBioSci Corporation, CA, USA) undergo spontaneous capillary morphogenesis with clearly identifiable lumens in the absence of external angiogenic growth factors. Endothelial cells were seeded on the surface of 1% (w/v) hydrogel in cell culture inserts (Millipore, MA, USA) at a seeding density of 10^5 cells/cm^2. Cells seeded on 5% gelatin-coated inserts were used as a negative control. Cells were labeled with CellTracker dye (Invitrogen, USA) before seeding or with Phalloidin-TRITC (Sigma Aldrich, St Louis, Mo., USA). After EF exposure, samples (at least N=10 separate EF exposure experiments per group) were fixed with 2% formaldehyde, and images of the sample surface (n=5 per sample) were captured at 20× magnification using an inverted fluorescent microscope (Olympus IX81; Olympus, Pa., USA). The characteristic size of capillary-like networks was determined using correlation analysis and custom-written MATLAB code (The Math Works, MA, USA).
# [3] = test system: VEGF; assay: VEGF protein release by endothelial cells (ELISA) with inhibitors; type: cell-based, C57 mice
# Description: Cells from passages 4-9 were used. […] VEGF and PIGF are two major angiogenic cytokines acting through VEGF receptors pathway. VEGF binds to both VEGFR1 and VEGFR2 receptors, although signals through VEGFR2. In contrast, PIGF which only binds to and signals through VEGFR1. To determine the effect of EF on the VEGF and PIGF protein release by endothelial cells, culture medium samples (at least N=6 separate experiments) were used to measure VEGF and PIGF protein levels using appropriate ELISA kits (R&D Systems, MN, USA).
# [4] = test system: MEK-cRaf complex; conditions: high frequency EF in the presence of 10 μM U0126, compared to low frequency or no-EF groups
# Description: as §1, §2
# as §3, with “All ELISA assays were performed in duplicates or triplicates, with all experiments repeated at least N=6 times.” left out
# [5] = 10 μM U0126, all experimental groups, compared to no inhibitor controls
# [6] = 10 μM U0126, high frequency EF vs low frequency EF and no-EF groups
structure (smiles),measurement,setting,value
O=C(O)CN(CC(=O)O)c1ccccc1OCCOc1ccccc1N(CC(=O)O)CC(=O)O [BAPTA],MEK phosphorylation levels,"[1]; 10 μM BAPTA, high frequency EF and no-EF groups",significantly reduced
same,phosphorylated MEK levels in high frequency EF group compared to no-EF controls,[1]; in the presence of 10 μM BAPTA,lower
"COC(=O)[C@@H](N)CCCNC(=N)N[N+](=O)[O-].Cl [L-NAME, Nω-Nitro-L-arginine methyl ester hydrochloride]",EF-induced increase in pMEK,"[1]; 200 μM L-NAME, high frequency EF",abolished
same,base pMEK levels,"[1]; 200 μM L-NAME, no-EF controls",did not affect
Cc1cc(C)c(/C=C2\C(=O)Nc3ccccc32)[nH]1 [SU5416],capillary morphogenesis,"[2]; 5 μM SU5416, all experimental groups, including no-EF controls, 12 hours",completely abolished
same,VEGF release,"[3]; 5 μM SU5416, all experimental groups, including no-EF controls",significantly reduced
same,high frequency EF-induced MEK phosphorylation,"[1]; 5 μM SU5416, 7.5 GHz EF vs low frequency and no-EF controls",did not block
N#CC(=C(/N)Sc1ccccc1N)/C(C#N)=C(\N)Sc1ccccc1N [U0126],capillary morphogenesis (network size),[2]; [5],significantly reduced
same,effect of high frequency EF on capillary morphogenesis,[2]; [6],effectively reversed
same,VEGF release by endothelial cells,[3]; [5],significantly reduced
same,effect of high frequency EF on VEGF release,[3]; [6],effectively reversed
same,total concentration of MEK,[1]; presence of 10 μM U0126,did not affect
same,free MEK levels,[4],increased
same,phosphorylation of MEK-cRaf complex (pMEK-cRaf),[4],reduced
same,protein levels of MEK-cRaf complex,[4],reduced
